Laboratory results as given in patent US20090011103A1, “Composition comprising polyphenol” (Conopco, Inc. d/b/a Unilever, priority 2007, published 2009).

Experiments:
[1] = system: mesenteric resistance arteries of SHR; test: Reactivity of isolated arteries: dilator effect during contraction induced by 40 mmol/L K+; design: species or system Spontaneously Hypertensive Rats (SHR)
Protocol: Segments of 2nd order mesenteric artery side branches were isolated from 14 weeks old male Spontaneously Hypertensive Rats (SHR). Two stainless-steel wires (diameter 40 μm) were inserted in the lumen of the arterial segments, which were then mounted in organ chambers between an isometric force transducer and a displacement device (Danish Myotechnology by J. P. Trading, Denmark). The organ chambers were filled with Krebs-Ringer bicarbonate solution which was maintained at 37° C. and continuously aerated with 95% O2 and 5% CO2. Before the actual experiments started, arterial segments were stretched to their individual optimal lumen diameter for mechanical performance, i.e. the diameter at which maximal contractile responses to noradrenaline (10 μmol/L) were obtained. In each experiment four second order mesenteric resistance arterial segments from one animal were mounted in individual organ chambers and studied in parallel. […]
For the analysis of the acute effects of the mixtures on K+-induced contraction, increasing concentrations of the mixtures (0.1-100 umol/L) were administered on top of the stable contractions and were left in contact with the arterial segments for 5-7 min to make sure that either no effect or a stable effect was reached. […] In this way, the effects of different exposure times to the mixtures (7, 30 and 90 min) on K+-induced contraction, could be evaluated. […]
Active wall tension (AWT) was calculated by subtracting the resting wall tension.
All contractile responses (AWT in the presence of stimuli, solvent and mixes of ingredients) were next expressed as a percentage of the contractile response (AWT) to 10 uM noradrenaline at the end of the normalisation period, i.e. before exposure of the arterial segments to solvent or mixes of ingredients.
Effects of increasing concentrations of the solvent and of the mixes (0.1 to 100 umol/L) during contractile responses to 40 mmol/L K+, were calculated as % change of the level of pre-contraction. […]

[2] = meeting abstract of Experimental biology 2007; read-out: vasorelaxing properties, 50% dose; cited from earlier work

## O=C(O)C=Cc1ccc(O)cc1 [p-coumaric acid, 3-(4-hydroxyphenyl)-2-prepenoic acid]
[1]; at a low concentration, by comparing the effect of different mixtures
  influence on the dilation of the arteries: significant influence on the dilation of the arteries
[1]; isolated SHR mesenteric arteries, K+ (40 mmol/L) pre-contraction, deduced by comparing different mixtures (Plackett-Burman design), corrected for solvent, read-out: EC50 of dilation of the arteries
  EC50: 7.5 µM
[1]; isolated SHR mesenteric arteries, K+ (40 mmol/L) pre-contraction, mixtures 0.1-100 umol/L
  concentration at which maximum dilatation was obtained: 100 µM
[2]
  EC50: 0.03 µM
